Test results published in patent EP1094711B1, “METHODS FOR ERADICATION OF NANOBACTERIA” (Nanobac Oy, priority 1998, dated 2000).
Where a name gives a salt, the structure may show the parent alone.

How the values were obtained:
nanobacteria [1] = assay: Antibiotic sensitivity test by Minimal Inhibition Concentration (MIC), 96-well plates, absorbance at 650 nm; format: cell-based; details: for antinanobacterial effect in the in vitro test (in words): in vitro MIC test; for MIC 50: 50% inhibition; for MIC 50 / MIC 90: DMEM with 10% gamma-irradiated FBS
Method: Antibiotic sensitivity tests were carried out by measuring Minimal Inhibition Concentration (MIC), a common practice in clinical microbiology.
The tests were performed in 96-well plates. DMEM (commercial cell culture medium) containing 10% gamma-irradiated fetal bovine serum (FBS)(dose about 3 Mrads; this treatment inactivates nanobacteria in the serum so that the basic medium is sterile) was used as the basic culture medium. These components are commercially available, e.g., from Gibco. The antibiotic stock solutions were sterile filtered through 0.2 micrometer filters. The stock solutions were then serially diluted (into the basal culture medium) to provide a final starting concentration of 0.5 mg/ml and 1:2 dilutions therefrom, unless otherwise specified. For each antibiotic three parallel tests were performed using all the antibiotic dilutions and, additionally, positive and negative control experiments. […] 100 µl of dilutions of the nanobacteria inoculum were added to all wells except the negative controls. The plates were incubated at mammalian cell culture conditions (37° Celsius, 5% carbon dioxide, 95% humid air). The absorbance values at 650 nm were recorded by using an ELISA reader at the start, and at 4, 8, 12, 14 days. […] Calculations were based on absorbance curves where absorbance was plotted against concentration of the antibiotic.

nanobacteria [2] = details: Kajander et al. 1997; cited from earlier work
nanobacteria [3] = assay: Treatment of human patients infected with nanobacteria; details: person with chronic fatigue syndrome; 500 mg 4 times per day for one month; after one month therapy
nanobacteria [4] = assay: Antibiotic sensitivity test by Minimal Inhibition Concentration (MIC), 96-well plates, absorbance at 650 nm; format: cell-based; details: culture medium, 37° Celsius
serum nanobacteria = assay: Antibiotic sensitivity test of serum nanobacteria with cell culture antibiotics; format: cell-based; details: 100 µg/ml, one month, medium containing 10% fetal bovine serum
Method: Nanobacteria were cultured with 10% fetal bovine serum in DMEM medium (serum nanobacteria) for one month at 37°C in an atmosphere of 5% CO2 - 95% air. The cultures were harvested by centrifugation. For the autoclaving, UV, microwave, heating and drying treatments, the harvested nanobacteria were suspended in phosphate buffered saline (pH 7.4; PBS). After treatments, subculturing of the nanobacteria was made in 10% gamma irradiated fetal bovine serum in DMEM medium. The growth of serum nanobacteria was followed by light microscopy and absorbance measurement with a spectrophotometer at 650 nm.
The 1× concentrations are those recommended for cell culture. […]

nanobacteria [5] = assay: Nanobacterial growth and biofilm formation on stents with metal ions in the culture medium; format: cell-based; details: salts added to the culture medium
Source text: Nanobacteria also absorb some heavy metals. Nanobacteria can be stained well with silver or copper compounds. […] Silver and copper parts or platings on surfaces, such as catheters or stents, can provide an antinanobacterial effect by preventing nanobacterial biofilm formation. In in vitro tests nanobacteria avidly formed biofilm on two different commercial stents made of a plastic type of material. This biofilm formation was prevented by the addition of silver or copper salts to the culture medium.

[6] = 90% inhibition, 12 day time point

Row | Molecule | antinanobacterial effect in the in vitro test (in words) (nanobacteria [1]) | MIC 50 (nanobacteria [1]; 12 day time point) | MIC 90 (nanobacteria [1]; [6]) | also measured
1 | O=C(O)CN(CCN(CC(=O)O)CC(=O)O)CC(=O)O [EDTA, ethylenediaminetetraacetic acid] | antinanobacterial effects |  |  | IC90 (nanobacteria [1]; 288 h, 90% inhibition, 12 day time point, read-out: MIC 90): 2.5 mM; IC50 (nanobacteria [1]; 288 h, read-out: MIC 50): 300 µM; effect on growth of nanobacteria (nanobacteria [2]): inhibts growth
2 | CN(C)[C@@H]1C(O)=C(C(N)=O)C(=O)[C@@]2(O)C(O)=C3C(=O)c4c(O)cccc4[C@@](C)(O)[C@H]3C[C@@H]12 [tetracycline HCl] |  |  |  | nanobacteria status of the patient (urine and serum samples) (nanobacteria [3]): nanobacteria negative
3 | Doxycycline | effective on inhibiting nanobacterial growth | 50 mg/L | 80 mg/L | stability under the test conditions (nanobacteria [4]): not stable
4 | Gentamycin | bacteriostatic effects at high antibiotic concentrations | 60 mg/L | 250 mg/L | morphology of nanobacteria in SEM (serum nanobacteria): changes in the morphology
5 | silver |  |  |  | biofilm formation on commercial stents (nanobacteria [5]): prevented
